Test results taken from PubChem BioAssay (NCI).
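Each compound was tested at five concentrations against cells in 96-well plates for 48 hours. At the TGI there is no net growth.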

Experiments:
Assay in all cases: inhibition of tumour cell growth, NCI panel, 48 h
[1] = test system: A549 NSCLC
[2] = test system: COLO 205 colon
[3] = test system: HCC-2998 colon
[4] = test system: K-562 leukemia
[5] = test system: M14 melanoma
[6] = test system: MALME-3M melanoma
[7] = test system: MOLT-4 leukemia
[8] = test system: OVCAR-8 ovarian
[9] = test system: SK-MEL-5 melanoma
[10] = test system: SR leukemia
[11] = test system: TK-10 renal
[12] = test system: UACC-62 melanoma
[13] = test system: CAKI-1 renal

## Cc1cnc2sn(-c3ccc([N+](=O)[O-])cc3)c(=O)c2c1
[1]
  TGI: > 100 µM
[2]
  TGI: > 100 µM
[3]
  TGI: > 100 µM
[4]
  TGI: > 100 µM
[5]
  TGI: > 100 µM
[6]
  TGI: > 100 µM
[7]
  TGI: > 100 µM
[8]
  TGI: > 100 µM
[9]
  TGI: > 100 µM
[10]
  TGI: > 100 µM
[11]
  TGI: > 100 µM
[12]
  TGI: > 100 µM

## CC(=N\N)/C(C)=N/N=C(C)/C(C)=N/N
[1]
  TGI: > 100 µM
[13]
  TGI: > 100 µM
[2]
  TGI: > 100 µM
[3]
  TGI: > 100 µM
[5]
  TGI: > 100 µM
[6]
  TGI: > 100 µM
[8]
  TGI: > 100 µM
[9]
  TGI: > 100 µM
[10]
  TGI: > 100 µM
[11]
  TGI: > 100 µM

## O=C1c2ccccc2C(=O)c2cc(N=Nc3c(O)ccc4ccccc34)ccc21
[1]
  TGI: > 100 µM
[13]
  TGI: > 100 µM
[2]
  TGI: > 100 µM
[4]
  TGI: > 100 µM
[5]
  TGI: > 100 µM
[6]
  TGI: > 100 µM
[7]
  TGI: > 100 µM
[8]
  TGI: > 100 µM
[9]
  TGI: > 100 µM
[10]
  TGI: > 100 µM
[11]
  TGI: > 100 µM
[12]
  TGI: > 100 µM

## COC(CN(C(C)=O)C1CCC2(SCCS2)c2[nH]c3ccccc3c21)OC (stereo not drawn)
[1]
  TGI: > 100 µM
[13]
  TGI: > 100 µM
[2]
  TGI: > 100 µM
[3]
  TGI: > 100 µM
[4]
  TGI: > 100 µM
[5]
  TGI: > 100 µM
[6]
  TGI: > 100 µM
[7]
  TGI: > 100 µM
[8]
  TGI: > 100 µM
[9]
  TGI: > 100 µM
[10]
  TGI: > 100 µM
[11]
  TGI: > 100 µM

## COc1ccc(-n2[nH]nc(C(N)=O)c2=O)cc1
[1]
  TGI: > 100 µM
[13]
  TGI: > 100 µM
[2]
  TGI: > 100 µM
[3]
  TGI: > 100 µM
[4]
  TGI: > 100 µM
[5]
  TGI: > 100 µM
[6]
  TGI: > 100 µM
[7]
  TGI: > 100 µM
[8]
  TGI: > 100 µM
[9]
  TGI: > 100 µM
[10]
  TGI: > 100 µM
[12]
  TGI: > 100 µM

## CCCCCCCCCCCCCCCCNC(=O)C(=O)/C=C(\O)c1ccc(C)cc1
[13]
  TGI: > 10 µM
[2]
  TGI: > 10 µM
[3]
  TGI: > 10 µM
[4]
  TGI: > 10 µM
[5]
  TGI: > 10 µM
[6]
  TGI: > 10 µM
[7]
  TGI: > 10 µM
[8]
  TGI: > 10 µM
[9]
  TGI: > 10 µM
[10]
  TGI: > 10 µM
[11]
  TGI: > 10 µM

## O=C(O)C(O)C(O)C(=O)O (stereo not drawn)
[1]
  TGI: > 100 µM
[13]
  TGI: > 100 µM
[2]
  TGI: > 100 µM
[4]
  TGI: > 100 µM
[5]
  TGI: > 100 µM
[6]
  TGI: > 100 µM
[7]
  TGI: > 100 µM
[8]
  TGI: > 100 µM
[9]
  TGI: > 100 µM
[10]
  TGI: > 100 µM
[11]
  TGI: > 100 µM
[12]
  TGI: > 100 µM

## C=CCC1CC(n2cc(C)c(=O)[nH]c2=O)OC1CO[Si](C)(C)C(C)(C)C (stereo not drawn)
[1]
  TGI: 26.8 µM
[13]
  TGI: 31.8 µM
[2]
  TGI: 27 µM
[3]
  TGI: 35.5 µM
[4]
  TGI: 24.3 µM
[5]
  TGI: 33.5 µM
[6]
  TGI: 23.2 µM
[8]
  TGI: 28.5 µM
[9]
  TGI: 29.9 µM
[10]
  TGI: 11.5 µM
[11]
  TGI: 30.1 µM
[12]
  TGI: 31.7 µM

## O=C(OC1C2OC(=O)c3cc(O)c(O)c(O)c3Oc3cc4c(c(O)c3O)-c3c(cc(O)c(O)c3O)C(=O)OCC3OC(O)C(OC(=O)c5cc(O)c(O)c(O)c5Oc5cc6c(c(O)c5O)-c5c(cc(O)c(O)c5O)C(=O)OC1C(COC6=O)OC2O)C(OC(=O)c1cc(O)c(O)c(O)c1)C3OC4=O)c1cc(O)c(O)c(O)c1 (stereo not drawn)
[1]
  TGI: 39.7 µM
[13]
  TGI: > 100 µM
[2]
  TGI: 54 µM
[4]
  TGI: 42.8 µM
[5]
  TGI: > 100 µM
[6]
  TGI: > 100 µM
[7]
  TGI: 12.2 µM
[8]
  TGI: 81.3 µM
[9]
  TGI: > 100 µM
[10]
  TGI: 27.3 µM
[11]
  TGI: > 100 µM
[12]
  TGI: 68.5 µM

## COc1ccc(C(c2c(O)c3ccccc3n(-c3ccccc3)c2=O)c2c(O)c3ccccc3n(-c3ccccc3)c2=O)cc1
[1]
  TGI: > 100 µM
[13]
  TGI: > 100 µM
[2]
  TGI: > 100 µM
[3]
  TGI: > 100 µM
[4]
  TGI: > 100 µM
[6]
  TGI: > 100 µM
[7]
  TGI: > 100 µM
[9]
  TGI: > 100 µM
[10]
  TGI: > 100 µM
[11]
  TGI: > 100 µM

## O=C1C(Br)=C(c2ccccc2)O/C1=C/C(=O)c1ccc(Br)cc1
[13]
  TGI: 35 µM
[2]
  TGI: > 100 µM
[3]
  TGI: > 100 µM
[4]
  TGI: > 100 µM
[5]
  TGI: > 100 µM
[6]
  TGI: > 100 µM
[7]
  TGI: > 100 µM
[8]
  TGI: 81.1 µM
[9]
  TGI: > 100 µM
[10]
  TGI: > 100 µM
[11]
  TGI: > 100 µM
[12]
  TGI: > 100 µM

## CCCC(CCC(N)=O)(CCC(N)=O)[N+](=O)[O-]
[1]
  TGI: > 100 µM
[13]
  TGI: > 100 µM
[2]
  TGI: > 100 µM
[4]
  TGI: > 100 µM
[5]
  TGI: > 100 µM
[6]
  TGI: > 100 µM
[7]
  TGI: > 100 µM
[8]
  TGI: > 100 µM
[9]
  TGI: > 100 µM
[10]
  TGI: > 100 µM
[11]
  TGI: > 100 µM
[12]
  TGI: > 100 µM

## C/C(=N\N=C(\N)SB(F)F)c1ccc2ccccc2c1
[1]
  TGI: > 100 µM
[13]
  TGI: > 100 µM
[2]
  TGI: > 100 µM
[3]
  TGI: > 100 µM
[4]
  TGI: > 100 µM
[5]
  TGI: > 100 µM
[6]
  TGI: > 100 µM
[8]
  TGI: > 100 µM
[9]
  TGI: > 100 µM
[10]
  TGI: > 100 µM
[11]
  TGI: > 100 µM
[12]
  TGI: > 100 µM

## COc1ccc(-n2c(N)c(C#N)[nH]c2=O)cc1
[1]
  TGI: > 10 µM
[2]
  TGI: > 10 µM
[3]
  TGI: > 10 µM
[4]
  TGI: > 10 µM
[5]
  TGI: > 10 µM
[6]
  TGI: > 10 µM
[7]
  TGI: > 10 µM
[8]
  TGI: > 10 µM
[9]
  TGI: > 10 µM
[10]
  TGI: > 10 µM
[11]
  TGI: > 10 µM
[12]
  TGI: > 10 µM
